Test results taken from US8586619B2, “Agents of calcium ion channel modulators” (VM Therapeutics LLC, priority 2007, dated 2013).

Tested on: Formalin induced pain in rat animal models of hyperalgesia
Test: Rat Formalin Paw Test (in vivo assay)
Conditions: flinches, shown in FIGS. 1 and 2
Protocol: Rat Formalin Paw Test (in Vivo Assay): Compounds were assessed for their ability to inhibit the behavioral response evoked by an injection of formalin (50 μl of 5% formalin). A metal band was affixed to the left hind paw of male Holtzman rats (225-250 g, Harlan Industries, Indianapolis Ind.) and each rat was conditioned to the band for 60 min within a plastic cylinder (15 cm diameter). Rats were dosed with either vehicle, positive control compound or a test compound either before (local) or after (systemic) formalin challenge. For local administration, compounds were prepared in either a 10:7.5 vehicle of saline (in mL) and (D)- or (L)-Tartaric acid (in mg), or a 1:1:6 vehicle of DMA (N,N-Dimethylacetamide), Tween 80 and saline, and injected […] into the dorsal surface of the right hind paw of the rat 60 min prior to formalin. The number of flinches was counted continuously for 60 min using an automated nociception analyzer (UCSD Anesthesiology Research, San Diego, Calif.). Statistical significance was determined by comparing the total flinches detected in the early (0-10 min, Phase I) and late (11-60 min) phase with an unpaired t-test. […]

| Compound | reduction of Formalin induced pain |
| --- | --- |
| CC1CCCC(NC(=O)C2N(C(C)CCc3ccccc3)C(=O)C3C(C(=O)Nc4cc(Cl)cc(Cl)c4)C4C=CC32O4)C1C (centres unmarked) [Compound 52, 3-(1-Methyl-3-phenyl-propyl)-4-oxo-10-oxa-3-aza-tricyclo[5.2.1.0^1,5]dec-8-ene-2,6-dicarboxylic acid 2-[(3,5-dichloro-phenyl)-amide]6-[(2,3-dimethyl-cyclohexyl)-amide]] | reduction of Formalin induced pain |
| O=C(c1ccc(F)cc1)C1CCN(CCn2c(=O)[nH]c3ccccc3c2=O)CC1 [Compound 401, 3-{2-[4-(4-Fluoro-benzoyl)-piperidin-1-yl]-ethyl}-1H-quinazoline-2,4-dione] | reduction of Formalin induced pain |
